Measured values published in PMC6033896, “Discovery of Mcl-1 inhibitors from integrated high throughput and virtual screening” (Scientific Reports, 2018).
Where “and” joins values, the source holds several entries; their conditions need not be identical. Equal entries are not always repeated.

Tests used:
[1] = biological target: T1, Mcl-1 protein (Homo sapiens, UniProt Q07820); test: SPR-based solution competitive binding assay, immobilized biotin-labelled Bim BH3 peptide; settings: Mcl-1 20 nM; competition with immobilized Bim BH3 peptide
T1 construct: human Mcl-1 (residues 171–323); His tag (pHis-TEV vector) (N, cleaved yes); made in house; host or cells: E. coli BL21 (DE3)
T1 sequence (Q07820 171-323): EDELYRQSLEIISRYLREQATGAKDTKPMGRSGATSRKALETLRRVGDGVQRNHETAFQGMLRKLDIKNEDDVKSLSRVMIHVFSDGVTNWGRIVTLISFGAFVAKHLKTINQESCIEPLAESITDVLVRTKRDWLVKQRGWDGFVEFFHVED
Protocol: The solution competitive SPR-based assay was performed on Biacore 2000 in a similar way as was already reported. Briefly, N terminal biotin-labelled Bim BH3 peptide (141–166 amino acids) was immobilized on streptavidin (SA) chip giving a density of 800 RU (Response Units). The pre-incubated Mcl-1 protein (20 nM) with tested small-molecule inhibitors for at least 30 min was injected over the surfaces of the chip using assay buffer HBS-P (GE, #BR100368). Response units were measured at 15 s in the dissociation phase, and IC50 values were determined by nonlinear least-squares analysis using GraphPad Prism 6.0 software.

[2] = tested on: Bcl-2; test: FP-based competitive binding assay with FAM-Bid; parameters: species or system human; settings: ratio of Ki
[3] = tested on: Bak−/− single knockout MEFs; test: MEF cell death, propidium iodide flow cytometry; type: cell-based, mouse; settings: increasing concentrations, 15 h
Protocol: (§1) MEF cells, including wild-type, Bax/Bak double knockout, Bax−/− single knockout, and Bak−/− single knockout were tested and characterized (Supplementary Fig. S3). The cells were cultured in DMEM (Life Technologies), supplemented with 10% fetal bovine serum (FBS) (Thermo Scientific HyClone) and 1% Penicillin/streptomycin solution (Life Technologies). The retrovirally transduced lymphoma cells isolated from Eμ-myc transgenic mice were provided by Ricky W. Johnstone at the University of Melbourne, Melbourne, Australia and cultured as previously described[37],[65].
(§2) MEFs were seeded in 24-well plates at 0.5 × 10^5 cells/well, left to adhere for 5 hours and then treated for 15 hours with increasing concentrations of the compounds. The cells were harvested, washed with phosphate-buffered saline (PBS) and stained with 0.025 mg/ml propidium iodide (MP Biomedicals). The percentage of the propidium iodide positive population was determined by flow cytometry and calculated using WinList 3.0.

[4] = tested on: Bax−/− single knockout MEFs; test: MEF cell death, propidium iodide flow cytometry; type: cell-based, mouse; settings: increasing concentrations, 15 h
Protocol: as §1, §2

[5] = tested on: Eµ-myc lymphoma cells overexpressing Bcl-xL; test: Eµ-myc lymphoma cell viability, flow cytometry; type: cell-based, mice; settings: increasing concentrations, 15 h
[6] = biological target: T2, 15N-labeled Mcl-1 (Homo sapiens, UniProt Q07820); test: 1H,15N HSQC NMR chemical shift perturbation; settings: direct binding to Mcl-1
T2 construct: human Mcl-1 (residues 171–323); made in house; host or cells: E. coli (bacteria grown on M9 minimal medium with 15N ammonium sulphate)
T2 sequence (Q07820 171-323): as above
Protocol: NMR studies were performed as previously described. In brief, the ^15N-labeled Mcl-1 protein was prepared and purified using the same protocol as for unlabelled protein with the exception that the bacteria were grown on M9 minimal media supported with 1 g/L of (^15NH4)2SO4. Protein samples were prepared in a 20 mM sodium phosphate, 150 mM NaCl and 1 mM DTT solution at pH 7 in 7% D2O. The binding mode of compounds has been characterized with a solution of uniformly ^15N-labeled Mcl-1 (75 μM) in the absence and presence of added compounds (in 1 or 6% final DMSO) with the indicated molar ratio concentrations. The total volume of each sample was 150 μL and samples were prepared in Bruker tubes (Bruker, # Z117724). All Spectra were acquired at 30 °C on a Bruker 600 MHz NMR spectrometer equipped with a cryogenic probe, processed using Bruker TopSpin and rNMR, and were analysed with Sparky. Plots of chemical shift changes were calculated as ((Δ^1H ppm)2 + (0.2(Δ^15N ppm))2)0.5 of Mcl-1 amide upon addition of compound. The absence of a bar in a chemical shift plot indicates no chemical shift difference or the presence of a proline or residue that is overlapped or not assigned. The cutoff threshold for determining the significance of the chemical shift was based on one standard deviation above the average of all chemical shifts.

[7] = tested on: Mcl-1/Noxa interaction; parameters: method as in PubChem BioAssay AID 1417; settings: Dose Response Confirmation for Mcl-1/Noxa Interaction Inhibitors; ref PubChem BioAssay AID 1417; cited from earlier work

| SMILES | IC50 [1] | fold lower binding affinity to Bcl-2 than to Mcl-1 [2] | cell death in Bak−/− MEFs [3] | cell death in Bax−/− MEFs [4] | effect on Eµ-myc cells overexpressing Bcl-xL [5] | chemical shift perturbations of Mcl-1 amides (HSQC NMR) [6] | IC50 [7] |
| --- | --- | --- | --- | --- | --- | --- | --- |
| O=C(CSc1nnc(-c2ccco2)c(-c2ccco2)n1)Nc1cccc(C(F)(F)F)c1 [Compound 39] | 6.3 ± 0.6 µM | > 20 fold | rescued the cells | rescued the cells | minimal effect | – | – |
| O=C(CSc1nnc(-c2ccco2)c(-c2ccco2)n1)Nc1ccccc1 [Compound 19] | 13 µM and 13.4 µM | – | – | – | – | concentration-dependent perturbations | 3.1 µM |
